Data on eleven compounds can be found in US7161016B1, “Cannabimimetic lipid amides as useful medications” (University of Connecticut, priority 1998, dated 2007).

Like-named read-outs stand apart in the source and are kept apart here.

One test concerns the target T1, CB1 cannabinoid receptor (Rattus norvegicus, UniProt P20272).
T1 construct: membranes were prepared from rat forebrain membranes; from tissue; host or cells: rat forebrain membranes
Kind of test: CB1 receptor binding assay ([3H]CP-55,940 displacement), with and without PMSF. Particulars: rat forebrain membranes. Here is the method:
It is known that the enzymatic action of anandamide amidase can be moderated or prevented in vitro by the inclusion of phenylmethanesulfonyl fluoride (PMSF). PMSF functions as a nonselective protease inhibitor. Thus the ligand binding determinations for the CB1 receptor were carried out in the presence and absence of PMSF, to obtain both CB1 receptor binding affinity and a relative measure of the analog's metabolic stability. The binding affinities (Ki) are expressed in nanomoles (nM).
For the CB1 receptor binding studies, membranes were prepared from rat forebrain membranes according to the procedure of P. R. Dodd et al, A Rapid Method for Preparing Synaptosomes: Comparison with Alternative Procedures, Brain Res., 107–118 (1981). The binding of the novel analogues to the CB1 cannabinoid receptor was assessed as described in W. A. Devane et al, Determination and Characterization of a Cannabinoid Receptor in a Rat Brain, Mol. Pharmacol., 34, 605–613 (1988) and A. Charalambous et al, 5′-azido Δ^8-THC: A Novel Photoaffinity Label for the Cannabinoid Receptor, J. Med. Chem., 35, 3076–3079 (1992) with the following changes. The above articles are incorporated by reference herein.
Membranes, previously frozen at −80° C., were thawed on ice. To the stirred suspension was added three volumes of 25 mM Tris-HCl buffer, 5 mM MgCl2 and 1 mM EDTA, pH 7.4 (TME) containing 150 μM PMSF (made fresh in 2-propanol as a 100 mM stock). The suspension was incubated at 4° C., and after 15 min a second addition of PMSF stock brought the concentration to 300 μM PMSF; then the mixture was incubated for another 15 min. At the end of the second 15-min incubation, the membranes were pelleted and washed three times with TME to remove un-reacted PMSF.
(§1) The treated membranes Were subsequently used in the binding assay described below. Approximately 30 μg of PMSF-treated membranes were incubated in silanized 96-well microtiter plate with TME containing 0.1% essentially fatty acid-free bovine serum albumin (BSA), 0.8 nM [^3H] […] The samples were filtered using Packard Filtermate 196 and Whatman GF/C filterplates and washed with wash buffer (TME) containing 0.5% BSA. Radioactivity was detected using MicroScint 20 scintillation cocktail added directly to the dried filterplates, and the filterplates were counted using a Packard Instruments Top-Count. Nonspecific binding was assessed using 100 nM CP-55,940. Data collected from three independent experiments performed with duplicate determinations was normalized between 100% and 0% specific binding for [^3H] CP-55,940, determined using buffer and 100 nM CP-55,940. The normalized data was analyzed using a 4-parameter nonlinear logistic equation to yield IC50 values.
The CB1 ligand binding determinations in the absence of PMSF were performed in a similar manner to the above test, except without the use of PMSF.

For the next test, the target named is T2, CB2 receptor (Mus musculus, UniProt P47936).
T2 construct: membranes were prepared from frozen mouse spleen; from tissue; host or cells: frozen mouse spleen membranes
T2 sequence (P47936 whole entry): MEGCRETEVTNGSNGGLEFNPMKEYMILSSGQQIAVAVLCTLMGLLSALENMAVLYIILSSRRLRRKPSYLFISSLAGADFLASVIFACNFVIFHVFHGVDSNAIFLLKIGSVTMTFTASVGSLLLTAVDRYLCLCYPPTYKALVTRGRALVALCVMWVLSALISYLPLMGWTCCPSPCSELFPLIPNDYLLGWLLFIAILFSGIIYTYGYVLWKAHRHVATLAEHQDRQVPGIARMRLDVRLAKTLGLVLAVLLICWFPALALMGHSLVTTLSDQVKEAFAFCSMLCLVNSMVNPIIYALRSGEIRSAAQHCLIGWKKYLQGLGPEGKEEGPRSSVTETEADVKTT
Briefly: CB2 receptor binding assay ([3H]CP-55,940 displacement), without PMSF. As to conditions: mouse spleen membranes. Here is the method: as §1
For the CB2 receptor binding studies, membranes were prepared from frozen mouse spleen essentially according to the procedure of P. R. Dodd et al, A Rapid Method for Preparing Synaptosomes: Comparison with Alternative Procedures, Brain Res., 226, 107–118 (1981). Silanized centrifuge tubes were used throughout to minimize receptor loss due to adsorption. The CB2 binding assay was conducted in the same manner as for the CB1 binding assay except the assays were conducted without PMSF. […] The binding affinities (Ki) are expressed in nanomoles (nM).

Where [1] appears, read: PMSF-treated, read-out: KI (CB1), with PMSF.
Where [2] appears, read: without PMSF (anandamide amidase active), read-out: KI (CB1), without PMSF.

T1 sequence (P20272 whole entry): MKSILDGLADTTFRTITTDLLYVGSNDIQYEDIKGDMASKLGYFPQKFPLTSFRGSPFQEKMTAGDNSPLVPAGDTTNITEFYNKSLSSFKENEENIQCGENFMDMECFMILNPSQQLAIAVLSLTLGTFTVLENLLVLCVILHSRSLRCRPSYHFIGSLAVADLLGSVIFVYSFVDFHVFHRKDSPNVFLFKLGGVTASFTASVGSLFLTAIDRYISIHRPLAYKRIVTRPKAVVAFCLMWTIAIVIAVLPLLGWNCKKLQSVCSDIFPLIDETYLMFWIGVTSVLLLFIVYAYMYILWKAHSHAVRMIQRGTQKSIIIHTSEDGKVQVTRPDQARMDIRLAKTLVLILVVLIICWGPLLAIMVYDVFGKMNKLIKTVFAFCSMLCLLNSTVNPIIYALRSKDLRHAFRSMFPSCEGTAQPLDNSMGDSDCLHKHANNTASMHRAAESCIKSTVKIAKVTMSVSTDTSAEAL

Usually Ki stands for a dissociation constant, usually derived from enzyme kinetics or from competition with a known ligand. For `CCCCC/C=C\C/C=C\C/C=C\C/C=C\CCCCNC(=O)COC(C)=O` [Analog 11, N-(2-Acetoxyacetyl)arachidonylamine], the Ki at CB1 cannabinoid receptor (setting [1]) was found to be 421 nM; at CB1 cannabinoid receptor (setting [2]), 419 nM.

In the case of `CCCCC/C=C\C/C=C\C/C=C\C/C=C\CCCC(=O)N[C@@H](C)CF` [Analog 2], the Ki is 1340 nM at CB2 receptor, 0.91 nM at CB1 cannabinoid receptor (setting [1]) and 56.3 nM on CB1 cannabinoid receptor (setting [2]).

For `CCCCCC=CCC=CCC=CCC=CCCCC(=O)NCCCCl` [Analog 6, N-(3-Chloropropyl)arachidonylamide], the Ki is 193 nM at CB2 receptor, 25.6 nM on CB1 cannabinoid receptor (setting [1]) and 387 nM at CB1 cannabinoid receptor (setting [2]).

In the case of `CCCCCC=CCC=CCC=CCC=CCCCC(=O)NCCCl` [Analog 5, N-(2-Chloroethyl)arachidonylamide], the Ki on CB2 receptor is 195 nM; at CB1 cannabinoid receptor (setting [1]), 5.29 nM; on CB1 cannabinoid receptor (setting [2]) it was 3400 nM.

With `CCCCC/C=C\C/C=C\C/C=C\C/C=C\CCCC(=O)N[C@H](C)CN=[N+]=[N-]` (racemic) [Analog 4, (R)-(+−)-Arachidonyl-1′-azido-2′-propylamide], the Ki on CB2 receptor was found to be 1230 nM; at CB1 cannabinoid receptor (setting [1]), 12.7 nM; at CB1 cannabinoid receptor (setting [2]), 25.6 nM.

Turning to `CCCCC/C=C\C/C=C\C/C=C\C/C=C\CCCCNC(=O)CCO` [Analog 10, N-(3-Hydroxypropionyl)arachidonylamine], the Ki at CB2 receptor amounted to 3540 nM; at CB1 cannabinoid receptor (setting [1]), 115 nM; on CB1 cannabinoid receptor (setting [2]), 134 nM.

For the compound `C=CCNC(=O)CCC/C=C\C/C=C\C/C=C\C/C=C\CCCCC` [Analog 7, N-Allylarachidonylamide], the Ki at CB2 receptor worked out at 226 nM; at CB1 cannabinoid receptor (setting [1]) it was 9.91 nM; at CB1 cannabinoid receptor (setting [2]), 2980 nM.

With `CCCCC/C=C\C/C=C\C/C=C\C/C=C\CCCCNC(=O)CO` [Analog 12], the values for the Ki on CB1 cannabinoid receptor (setting [1]) and on CB1 cannabinoid receptor (setting [2]) were 20 nM and 23 nM, respectively.

For `CCCCC/C=C\C/C=C\C/C=C\C/C=C\CCCC(=O)N[C@H](C)CF` [Analog 1, N-(2-Fluoro-1R-(methylethyl)arachidonylamide)], the Ki on CB2 receptor is 785 nM; at CB1 cannabinoid receptor (setting [1]), 1.18 nM; at CB1 cannabinoid receptor (setting [2]), 10.1 nM.

As to `C#CCNC(=O)CCC/C=C\C/C=C\C/C=C\C/C=C\CCCCC` [Analog 8, N-Propargylarachidonylamide], the Ki at CB2 receptor was 290 nM; on CB1 cannabinoid receptor (setting [1]) it was 10.8 nM; at CB1 cannabinoid receptor (setting [2]) it was 4900 nM.

With `CCCCCC=CCC=CCC=CCC=CCCCC(=O)NCC(F)(F)F` [Analog 9, N-(2,2,2-Trifluroethyl) arachidonylamide], the results for the Ki on CB2 receptor, at CB1 cannabinoid receptor (setting [1]) and at CB1 cannabinoid receptor (setting [2]) were 718 nM, 36.2 nM and 2380 nM, respectively.
